Here are results for 30 molecules from ChEMBL document CHEMBL1138333, “Discovery of the first nonpeptidic, small-molecule, highly selective somatostatin receptor subtype 5 antagonists: a chemogenomics approach” (J Med Chem, 2007).

Data set [1] concerns the target T1, Somatostatin receptor type 5 (Homo sapiens, UniProt P35346). Description: Antagonist activity at human SST5R expressed in CHO cells assessed as reversal of somatostatin-14 induced cAMP response. The class given is functional, cell-based.
In data set [2] the target is Voltage-gated inwardly rectifying potassium channel KCNH2 (Homo sapiens, UniProt Q12809). Description: Inhibition of hERG channel. The class given is toxicity. In general terms: Block of hERG is tested as a sign of cardiac risk.
Data set [3] can be described thus: Distribution coefficient, log D at pH 7.4. The settings on record: octanol/water. The class given is physicochemical.
A short description of data set [4]: Passive membrane permeability by PAMPA. The class given is ADME. The settings on record: read-out: permeability.
Data set [5] is described as follows: Solubility at pH 6.5 by lyophilisation solubility assay. The class given is physicochemical. The settings on record: buffer.
The target of a further data set is Histamine H1 receptor (Homo sapiens, UniProt P35367). The data set can be described thus: Binding affinity to histamine H1 receptor.
For data set [6], the target named is T1, Somatostatin receptor type 5. Description: Displacement of [125I]11-Tyr somatostatin-14 from human SST5R expressed in CHO cells. The class given is cell-based.
Data set [7] addresses Somatostatin receptor type 2 (Homo sapiens, UniProt P30874). Description: Binding affinity to human SST2R.
Data set [8] concerns the target Somatostatin receptor type 4 (Homo sapiens, UniProt P31391). Description: Binding affinity to human SST4R.
In data set [9] the target is Somatostatin receptor type 3 (Homo sapiens, UniProt P32745). Description: Binding affinity to human SST3R.
In data set [10] the target is Somatostatin receptor type 1 (Homo sapiens, UniProt P30872). Description: Binding affinity to human SST1R.

In brackets after ≈: the same amount, converted by molar mass.

T1 sequence (P35346 whole entry): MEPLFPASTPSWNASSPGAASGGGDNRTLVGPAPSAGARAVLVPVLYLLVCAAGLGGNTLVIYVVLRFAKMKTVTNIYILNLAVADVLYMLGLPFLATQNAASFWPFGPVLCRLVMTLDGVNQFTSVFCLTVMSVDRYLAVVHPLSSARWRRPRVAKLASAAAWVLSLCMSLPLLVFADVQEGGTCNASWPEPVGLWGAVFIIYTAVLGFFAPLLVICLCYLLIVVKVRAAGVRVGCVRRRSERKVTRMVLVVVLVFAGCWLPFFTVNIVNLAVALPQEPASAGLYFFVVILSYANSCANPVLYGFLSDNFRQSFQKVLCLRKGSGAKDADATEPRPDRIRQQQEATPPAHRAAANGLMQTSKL
Chain of Voltage-gated inwardly rectifying potassium channel KCNH2 (Q12809 whole entry): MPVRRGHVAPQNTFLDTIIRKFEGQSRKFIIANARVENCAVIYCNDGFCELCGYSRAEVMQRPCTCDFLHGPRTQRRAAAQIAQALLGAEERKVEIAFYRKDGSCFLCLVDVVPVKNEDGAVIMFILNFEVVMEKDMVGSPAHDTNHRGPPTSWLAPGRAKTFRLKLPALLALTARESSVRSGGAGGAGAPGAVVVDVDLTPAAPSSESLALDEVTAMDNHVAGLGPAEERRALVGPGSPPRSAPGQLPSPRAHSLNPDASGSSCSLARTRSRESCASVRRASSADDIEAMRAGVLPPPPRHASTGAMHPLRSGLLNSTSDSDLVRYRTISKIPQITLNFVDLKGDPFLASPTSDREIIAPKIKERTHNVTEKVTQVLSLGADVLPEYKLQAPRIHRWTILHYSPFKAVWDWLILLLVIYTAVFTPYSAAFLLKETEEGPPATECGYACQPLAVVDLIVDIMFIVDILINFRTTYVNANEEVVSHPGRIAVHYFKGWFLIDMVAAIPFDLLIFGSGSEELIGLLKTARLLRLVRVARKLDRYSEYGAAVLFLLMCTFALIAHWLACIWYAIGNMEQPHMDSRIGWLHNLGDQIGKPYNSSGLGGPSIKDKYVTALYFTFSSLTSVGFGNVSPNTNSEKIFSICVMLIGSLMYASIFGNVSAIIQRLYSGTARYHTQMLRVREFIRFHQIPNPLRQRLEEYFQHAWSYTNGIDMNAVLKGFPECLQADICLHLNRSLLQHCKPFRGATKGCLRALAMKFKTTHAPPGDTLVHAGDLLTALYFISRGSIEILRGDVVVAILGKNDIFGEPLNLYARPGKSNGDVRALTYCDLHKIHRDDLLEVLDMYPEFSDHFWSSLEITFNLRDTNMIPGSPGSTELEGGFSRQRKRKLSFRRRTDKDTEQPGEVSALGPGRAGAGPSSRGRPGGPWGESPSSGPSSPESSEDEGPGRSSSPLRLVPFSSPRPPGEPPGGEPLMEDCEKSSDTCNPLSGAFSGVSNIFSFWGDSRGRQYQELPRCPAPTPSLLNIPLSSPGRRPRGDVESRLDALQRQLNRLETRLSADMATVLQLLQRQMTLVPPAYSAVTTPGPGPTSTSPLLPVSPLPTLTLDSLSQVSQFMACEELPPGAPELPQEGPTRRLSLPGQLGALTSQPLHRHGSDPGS
Chain of Somatostatin receptor type 4 (P31391 whole entry): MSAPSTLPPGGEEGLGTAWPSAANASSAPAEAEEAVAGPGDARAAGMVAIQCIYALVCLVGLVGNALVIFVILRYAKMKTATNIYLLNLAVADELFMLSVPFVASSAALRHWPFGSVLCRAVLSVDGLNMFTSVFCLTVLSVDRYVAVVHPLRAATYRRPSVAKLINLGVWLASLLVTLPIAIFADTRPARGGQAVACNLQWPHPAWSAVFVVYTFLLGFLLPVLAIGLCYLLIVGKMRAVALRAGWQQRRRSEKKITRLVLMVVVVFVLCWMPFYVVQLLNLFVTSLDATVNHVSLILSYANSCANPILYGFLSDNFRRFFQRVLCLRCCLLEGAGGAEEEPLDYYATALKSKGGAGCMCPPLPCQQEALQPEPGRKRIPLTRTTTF
Chain of Somatostatin receptor type 2 (P30874 whole entry): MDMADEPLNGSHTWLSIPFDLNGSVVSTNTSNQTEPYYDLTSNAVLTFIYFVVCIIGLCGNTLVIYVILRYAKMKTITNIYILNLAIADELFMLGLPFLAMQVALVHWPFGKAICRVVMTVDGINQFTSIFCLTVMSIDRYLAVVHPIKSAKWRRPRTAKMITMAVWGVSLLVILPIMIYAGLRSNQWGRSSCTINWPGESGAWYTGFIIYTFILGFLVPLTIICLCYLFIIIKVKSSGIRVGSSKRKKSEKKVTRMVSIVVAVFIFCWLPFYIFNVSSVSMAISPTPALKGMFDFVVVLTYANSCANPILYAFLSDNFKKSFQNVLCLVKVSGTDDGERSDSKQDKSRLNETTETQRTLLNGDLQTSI
Chain of Somatostatin receptor type 1 (P30872 whole entry): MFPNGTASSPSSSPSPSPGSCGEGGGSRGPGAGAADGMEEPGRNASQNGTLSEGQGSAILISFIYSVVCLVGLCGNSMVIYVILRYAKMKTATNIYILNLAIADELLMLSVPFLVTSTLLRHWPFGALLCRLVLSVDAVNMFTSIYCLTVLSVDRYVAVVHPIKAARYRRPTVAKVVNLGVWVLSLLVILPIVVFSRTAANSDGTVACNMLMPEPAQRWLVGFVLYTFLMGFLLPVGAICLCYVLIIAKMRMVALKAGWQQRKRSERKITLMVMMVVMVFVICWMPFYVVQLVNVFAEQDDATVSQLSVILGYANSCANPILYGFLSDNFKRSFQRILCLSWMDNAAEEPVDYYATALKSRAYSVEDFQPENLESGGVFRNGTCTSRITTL
Chain of Somatostatin receptor type 3 (P32745 whole entry): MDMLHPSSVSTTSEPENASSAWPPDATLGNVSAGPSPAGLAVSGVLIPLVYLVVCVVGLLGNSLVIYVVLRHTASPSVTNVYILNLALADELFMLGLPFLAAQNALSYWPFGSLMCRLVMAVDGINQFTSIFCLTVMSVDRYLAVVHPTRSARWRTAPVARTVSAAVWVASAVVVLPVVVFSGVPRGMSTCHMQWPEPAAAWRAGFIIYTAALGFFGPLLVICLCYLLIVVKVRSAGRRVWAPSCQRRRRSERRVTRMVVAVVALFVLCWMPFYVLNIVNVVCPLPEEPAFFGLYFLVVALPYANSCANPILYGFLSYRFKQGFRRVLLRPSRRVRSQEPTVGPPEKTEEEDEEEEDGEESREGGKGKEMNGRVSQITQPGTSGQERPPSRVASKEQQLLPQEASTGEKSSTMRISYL
Chain of Histamine H1 receptor (P35367 whole entry): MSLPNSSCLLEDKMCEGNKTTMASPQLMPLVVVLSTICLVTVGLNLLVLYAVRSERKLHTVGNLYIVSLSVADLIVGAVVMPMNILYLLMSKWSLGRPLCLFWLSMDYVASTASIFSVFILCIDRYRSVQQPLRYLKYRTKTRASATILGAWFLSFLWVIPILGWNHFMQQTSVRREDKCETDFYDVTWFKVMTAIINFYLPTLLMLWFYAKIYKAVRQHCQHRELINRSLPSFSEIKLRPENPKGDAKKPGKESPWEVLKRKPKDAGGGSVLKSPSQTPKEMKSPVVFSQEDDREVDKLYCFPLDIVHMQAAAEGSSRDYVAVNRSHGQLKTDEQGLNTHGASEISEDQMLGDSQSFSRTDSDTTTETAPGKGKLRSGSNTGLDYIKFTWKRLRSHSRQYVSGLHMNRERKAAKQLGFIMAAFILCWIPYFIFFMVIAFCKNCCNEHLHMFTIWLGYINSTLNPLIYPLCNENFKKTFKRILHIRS

A word on the IC50: it is the concentration that gives 50% inhibition. Usually logD stands for lipophilicity at a set pH, counting ionised and neutral species. A higher logD goes with a more lipophilic compound. What is called solubility is the concentration that dissolves in the medium under given conditions. A low value points to a poorly soluble substance. As usually defined, the Ki is a measure of affinity in units of concentration, obtained from inhibition or displacement. A low value points to higher affinity. Turning to `CCOc1cc(CN2CCC(Nc3nc4ccccc4o3)CC2)ccc1OC`, the IC50 was 740 nM in [1] and below 100 nM in [2]. The logD in [3] was found to be 2.92. The Papp in [4] was determined as 4.44 ×10⁻⁶ cm/s. In data set [5], this molecule registered a solubility of 130 µg/mL (≈ 341 µM). The Ki is 624 nM on Histamine H1 receptor and 121 nM in data set [6].

Take `COc1ccc(CN2CCC(Nc3nc4ccccc4o3)CC2)cc1OCC(C)C`: the affinity in data set [6], expressed as Ki, was 23 nM. That is a double-digit nanomolar value.

`Fc1ccc(CCN2CCC(Nc3nc4ccccc4n3Cc3ccc(F)cc3)CC2)cc1` displayed a Ki in [6] above 10000 nM.

Consider `Fc1ccc(Cn2c(NC3CCN(CC4CCc5ccccc5C4)CC3)nc3ccccc32)cc1` (stereo unspecified), for which the inhibition constant Ki in data set [6] is above 10000 nM.

For `Fc1ccc(Cn2c(NC3CCN(CCCc4ccccc4)CC3)nc3ccccc32)cc1`, in [6], the inhibitory constant (Ki) was above 10000 nM.

`CCOc1cc(CN2CCC(Nc3nc4ccccc4o3)CC2)ccc1Cl`: the affinity in data set [6], expressed as Ki, was 113 nM.

As to `CCOc1cc(CN2CCC(Nc3nc4ccccc4o3)CC2)ccc1C`, the Ki in data set [6] is 37 nM.

Molecule `CCOc1cc(CN2CCC(Nc3nc4ccccc4o3)CC2)ccc1OC(F)(F)F` displayed a Ki in data set [6] of 524 nM.

Molecule `Fc1ccc(Cn2c(NC3CCN(Cc4ccccc4)CC3)nc3ccccc32)cc1` showed an inhibition constant Ki in data set [6] of 6120 nM.

As to `Fc1ccc(Cn2c(NC3CCN(Cc4ccc5c(c4)CCO5)CC3)nc3ccccc32)cc1`, the affinity in data set [6] corresponds to a Ki of 1630 nM.

In [6], `Fc1ccc(Cn2c(NC3CCN(Cc4ccc5[nH]ccc5c4)CC3)nc3ccccc32)cc1` showed an inhibition constant (Ki) of 3950 nM. Compared with the last molecule, the Ki is about 2.4-fold higher.

`CCOc1cc(CN2CCC(Nc3nc4cc(S(N)(=O)=O)ccc4o3)CC2)cc(OCC)c1N`: the inhibition constant (Ki) in data set [7] was above 10000 nM; in [8] it was above 10000 nM; in [9] it was above 10000 nM; in data set [10] it was above 10000 nM; in data set [6], 13 nM.

With `CCOc1cc(CN2CCC(Nc3nc4ccccc4o3)CC2)ccc1O`, the inhibition constant (Ki) in [6] was determined as 66 nM.

Take `Cc1cccc2c(CN3CCC(Nc4nc5ccccc5n4Cc4ccc(F)cc4)CC3)c[nH]c12`: the Ki in data set [6] is 1440 nM.

The molecule `COc1cc(CN2CCC(Nc3nc4ccccc4s3)CC2)c(OC)c2ccccc12` gave a Ki in data set [6] of 683 nM.

`COc1cc(CN2CCC(Nc3nc4ccccc4s3)CC2)ccc1O`: in data set [6], the affinity corresponds to a Ki of 5130 nM.

Consider `CCOc1cc(CN2CCC(Nc3nc4ccccc4s3)CC2)ccc1O`, for which, in data set [6], the Ki was 149 nM.

As to `CCOc1cc(CN2CCC(Nc3nc4ccccc4s3)CC2)ccc1OC`, in data set [6], the inhibition constant Ki stood at 326 nM.

In turn, `COc1cc(CN2CCC(Nc3nc4ccccc4o3)CC2)c(OC)c2ccccc12` had a Ki in data set [6] of 794 nM.

For the molecule `CCOc1cc(CN2CCC(Nc3nc4cc(S(N)(=O)=O)ccc4o3)CC2)ccc1Cl`, the Ki in data set [6] worked out at 17 nM.

With `COc1ccc(CN2CCC(Nc3nc4ccccc4s3)CC2)cc1OC`, the inhibition constant (Ki) in [6] is 1790 nM.

As for `CCCOc1cc(CN2CCC(Nc3nc4ccccc4o3)CC2)ccc1OC`, the inhibitory constant (Ki) in [6] is 293 nM.

With `COc1ccc(CN2CCC(Nc3nc4ccccc4o3)CC2)cc1OC1CCCC1`, affinity in data set [6] was put at a Ki of 83 nM.

Molecule `CCOc1cc(CN2CCC(Nc3nc4ccccc4o3)CC2)ccc1F` came in with an inhibition constant (Ki) in data set [6] of 194 nM.

With `COc1cc(CN2CCC(Nc3nc4ccccc4n3Cc3ccc(F)cc3)CC2)c(OC)c2ccccc12`, the inhibition constant (Ki) in [6] came out at 1230 nM.

With `CCOc1cc(CN2CCC(Nc3nc4cc(S(N)(=O)=O)ccc4o3)CC2)ccc1OC`, in data set [2], the concentration for half-maximal inhibition (IC50) is 3500 nM. For the same molecule, the Ki in data set [6] was 185 nM.

In [6], `Fc1ccc(Cn2c(NC3CCN(CCc4ccc(OC(F)(F)F)cc4)CC3)nc3ccccc32)cc1` yielded an inhibition constant (Ki) above 10000 nM.

Regarding `COc1ccc(CN2CCC(Nc3nc4ccccc4n3Cc3ccc(F)cc3)CC2)cc1`, the Ki in [6] was found to be 3950 nM. That is a single-digit micromolar value.

Molecule `Fc1ccc(Cn2c(NC3CCN(CCc4ccccc4)CC3)nc3ccccc32)cc1` showed an inhibition constant Ki in [6] of 5000 nM. The Ki values of the last two molecules are within 1.5-fold of each other.

`COc1ccc(CCN2CCC(Nc3nc4ccccc4n3Cc3ccc(F)cc3)CC2)cc1` [ASTEMIZOLE] gave an inhibition constant Ki in data set [6] of 4070 nM.
